In PMC6407579, “New flavonoid – N,N-dibenzyl(N-methyl)amine hybrids: Multi-target-directed agents for Alzheimer´s disease endowed with neurogenic properties” (Journal of Enzyme Inhibition and Medicinal Chemistry, 2019):
Where “and” joins values, the source holds several entries; their conditions need not be identical. Equal values may be shown once. Read-outs that look alike come from different tables or passages of the source.

Columns and labels:
[1] = Oxygen radical absorbance capacity assay (ORAC); settings: trolox taken as 1.0
recombinant hMAO-A = target: T1, recombinant hMAO-A (Homo sapiens, UniProt P21397); assay: biochemical; type: biochemical; settings: mean ± SEM (n = 3); 100 µM highest concentration tested
T1 sequence (P21397 1-527): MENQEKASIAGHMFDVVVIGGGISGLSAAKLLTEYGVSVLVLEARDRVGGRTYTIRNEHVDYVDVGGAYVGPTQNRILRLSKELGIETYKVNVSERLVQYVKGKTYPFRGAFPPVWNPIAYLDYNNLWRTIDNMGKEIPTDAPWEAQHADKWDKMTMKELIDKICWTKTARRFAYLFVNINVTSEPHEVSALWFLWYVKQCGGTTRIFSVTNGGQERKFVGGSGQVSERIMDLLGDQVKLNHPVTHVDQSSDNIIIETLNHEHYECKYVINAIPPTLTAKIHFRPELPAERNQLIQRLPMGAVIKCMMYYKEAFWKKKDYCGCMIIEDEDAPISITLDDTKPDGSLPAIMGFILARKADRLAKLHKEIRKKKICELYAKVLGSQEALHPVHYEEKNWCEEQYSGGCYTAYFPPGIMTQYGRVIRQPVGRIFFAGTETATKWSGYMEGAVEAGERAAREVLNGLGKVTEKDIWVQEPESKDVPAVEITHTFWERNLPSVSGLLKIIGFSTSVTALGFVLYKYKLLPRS

[2] = target: T2, human recombinant AChE (hAChE) (Homo sapiens, UniProt P22303); assay: biochemical
T2 construct: purchased Sigma Chemical Co
Experimental: The Ellman method was followed, using human recombinant AChE and BuChE from human serum. The assay solution consisted of 0.1 M phosphate buffer pH 8.0, 400 μM 5,5´-dithiobis(2-nitrobenzoic acid) (DTNB, Ellman’s reagent), 0.05 U/mL hAChE (Sigma Chemical Co.) or 0.024 U/mL hBuChE (Sigma Chemical Co.), and 800 μM acetylthiocholine iodide, or 500 μM butyrylthiocholine as the substrate of the enzymatic reaction, respectively. The compounds tested were added to the assay solution and preincubated with the enzyme for 5 min at 30 °C. After that period, the substrate was added.

[3] = In vitro blood-brain barrier permeation assay (PAMPA-BBB); type: in vitro ADME; settings: pig, pH 7.4, porcine brain lipid, PBS:ethanol (70:30), 25 °C, read-out: PAMPA-BBB permeability in the CNS (Pe)
Experimental: Prediction of the brain penetration was evaluated using a parallel artificial membrane permeation assay (PAMPA-BBB), in a similar manner as previously described[36]^,[46]^,[51–53]. Pipetting was performed with a semi-automatic pipettor (CyBi®-SELMA) and UV reading with a microplate spectrophotometer (Multiskan Spectrum, Thermo Electron Co.). Commercial drugs, phosphate buffered saline solution at pH 7.4 (PBS), and dodecane were purchased from Sigma, Aldrich, Acros, and Fluka. Millex filter units (PVDF membrane, diameter 25 mm, pore size 0.45 μm) were acquired from Millipore. The porcine brain lipid (PBL) was obtained from Avanti Polar Lipids. The donor microplate was a 96-well filter plate (PVDF membrane, pore size 0.45 μm) and the acceptor microplate was an indented 96-well plate, both from Millipore. The acceptor 96-well microplate was filled with 200 μL of PBS: ethanol (70:30) and the filter surface of the donor microplate was impregnated with 5 μL of porcine brain lipid (PBL) in dodecane (20 mg mL^−1). Compounds were dissolved in PBS: ethanol (70:30) at 100 μg mL^−1, filtered through a Millex filter, and then added to the donor wells (200 μL). The donor filter plate was carefully put on the acceptor plate to form a sandwich, which was left undisturbed for 120 min at 25 °C. After incubation, the donor plate is carefully removed and the concentration of compounds in the acceptor wells was determined by UV-Vis spectroscopy. Every sample is analysed at five wavelengths, in four wells and at least in three independent runs, and the results are given as the mean ± standard deviation. In each experiment, 11 quality control standards of known BBB permeability were included to validate and normalise the analysis set.
To check if new compounds could be able to reach their CNS-targets, we used the in vitro parallel artificial membrane permeability assay for the blood-brain barrier (PAMPA-BBB) described by Di et al.[87], and partially modified by us for testing molecules with limited water-solubility[36]^,[46]^,[51–53]. The passive CNS-permeation of new compounds 1–13 through a lipid extract of porcine brain was measured at room temperature. In each experiment, 11 commercial drugs of known brain permeability were also tested and their permeability values normalised to the reported PAMPA-BBB data. […].

recombinant hMAO-B = target: T3, recombinant hMAO-B (Homo sapiens, UniProt P27338); assay: biochemical; type: biochemical; settings: for IC50: mean ± SEM (n = 3), 100 µM highest concentration tested
T3 sequence (P27338 1-520): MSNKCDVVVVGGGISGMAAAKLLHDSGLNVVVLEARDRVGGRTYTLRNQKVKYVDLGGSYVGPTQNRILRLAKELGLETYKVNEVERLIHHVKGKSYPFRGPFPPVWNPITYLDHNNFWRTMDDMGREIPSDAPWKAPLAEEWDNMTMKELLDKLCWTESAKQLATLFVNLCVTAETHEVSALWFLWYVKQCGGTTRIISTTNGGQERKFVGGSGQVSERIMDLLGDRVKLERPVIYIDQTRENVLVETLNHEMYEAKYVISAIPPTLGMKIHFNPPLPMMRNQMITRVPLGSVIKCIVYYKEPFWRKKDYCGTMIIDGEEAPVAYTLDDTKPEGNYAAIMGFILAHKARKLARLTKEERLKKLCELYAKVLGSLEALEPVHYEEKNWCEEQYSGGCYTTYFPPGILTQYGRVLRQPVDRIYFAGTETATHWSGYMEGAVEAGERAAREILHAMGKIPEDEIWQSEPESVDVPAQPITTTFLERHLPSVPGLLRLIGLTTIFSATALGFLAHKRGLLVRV

hLOX-5 = target: T4, hLOX-5 (Homo sapiens, UniProt P09917); assay: Inhibition of human lipoxygenase-5 (fluorescence-based, Pufahl); type: biochemical; settings: three independent experiments
T4 sequence (P09917 1-674): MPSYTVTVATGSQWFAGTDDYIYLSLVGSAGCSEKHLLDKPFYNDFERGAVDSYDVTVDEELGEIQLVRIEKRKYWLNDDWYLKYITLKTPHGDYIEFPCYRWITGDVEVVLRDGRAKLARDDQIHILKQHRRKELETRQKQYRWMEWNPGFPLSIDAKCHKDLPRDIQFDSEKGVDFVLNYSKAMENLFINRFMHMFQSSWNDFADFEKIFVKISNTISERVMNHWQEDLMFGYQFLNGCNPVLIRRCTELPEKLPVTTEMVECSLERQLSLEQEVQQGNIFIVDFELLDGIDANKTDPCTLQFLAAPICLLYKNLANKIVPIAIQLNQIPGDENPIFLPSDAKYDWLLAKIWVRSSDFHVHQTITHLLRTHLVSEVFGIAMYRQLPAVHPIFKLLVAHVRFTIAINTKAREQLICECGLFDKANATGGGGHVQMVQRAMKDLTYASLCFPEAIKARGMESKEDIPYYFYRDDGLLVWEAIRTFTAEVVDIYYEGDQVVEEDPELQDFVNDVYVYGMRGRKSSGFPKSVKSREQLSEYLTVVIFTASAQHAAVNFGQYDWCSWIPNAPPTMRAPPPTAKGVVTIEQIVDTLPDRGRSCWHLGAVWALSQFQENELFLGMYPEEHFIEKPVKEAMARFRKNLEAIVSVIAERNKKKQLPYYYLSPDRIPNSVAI
Experimental: The fluorescence-based enzyme method developed by Pufahl et al. was followed, in 96-well microtiter plates. The assay solution consists of Tris buffer (50 mM, pH 7.5), ethylenediaminetetraacetic acid (EDTA, 2 mM), CaCl2 (2 mM), arachidonic acid (AA, 3 μM), ATP (10 μM), 2',7'-dichlorodihydrofluorescein diacetate (H2DCFDA, 10 μM), hLOX-5 (100 mU/well), bovine glutathione peroxidase (GPx, 25 mU/well) and reduced glutathione (GSH, 1 mM). Compounds to be tested were added to the test solution prior to AA and ATP, and pre-incubated for a period of 10 min at room temperature. Then, the AA and ATP substrates were added; the enzymatic reaction allowed to progress for 20 min and ended by the addition of 40 μL of acetonitrile.
A selection of new hybrids covering different structural motifs was assayed as inhibitors of hLOX-5, followed the method described by Pufahl et al.[55].

[4] = mean ± SEM (n = 3), read-out: hAChE IC50

T2 sequence (P22303 32-614): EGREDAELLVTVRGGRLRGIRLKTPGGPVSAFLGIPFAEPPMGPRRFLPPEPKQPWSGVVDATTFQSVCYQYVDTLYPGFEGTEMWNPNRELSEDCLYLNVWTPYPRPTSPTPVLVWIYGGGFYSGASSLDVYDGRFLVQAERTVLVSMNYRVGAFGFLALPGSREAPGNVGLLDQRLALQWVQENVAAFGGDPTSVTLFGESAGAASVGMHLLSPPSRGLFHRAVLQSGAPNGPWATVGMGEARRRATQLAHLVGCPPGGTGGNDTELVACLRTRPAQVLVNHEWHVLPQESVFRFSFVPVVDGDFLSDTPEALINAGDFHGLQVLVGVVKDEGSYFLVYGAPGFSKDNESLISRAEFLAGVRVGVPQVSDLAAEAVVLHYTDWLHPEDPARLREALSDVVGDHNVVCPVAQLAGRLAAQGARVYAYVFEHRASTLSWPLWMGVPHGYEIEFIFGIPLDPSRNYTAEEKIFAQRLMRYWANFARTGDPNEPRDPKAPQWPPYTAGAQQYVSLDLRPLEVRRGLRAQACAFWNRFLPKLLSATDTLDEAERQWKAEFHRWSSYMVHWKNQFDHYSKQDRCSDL

In the case of `Cc1c(C)c2c(c(C)c1O)CCC(C)(C(=O)O)O2` (racemic) [Trolox, (±)-6-hydroxy-2,5,7,8-tetramethylchromane-2-carboxylic acid, reference compound], the “ORAC, trolox equivalents” value [1] is reported as 1.0 mmol of trolox/mmol of tested compound.

With `COc1cc(OC)c2c(=O)cc(C(=O)Nc3ccc(CN(C)Cc4ccccc4)cc3)oc2c1` [Compound 3, N-(4-((Benzyl(methyl)amino)methyl)phenyl)-5,7-dimethoxy-4-oxo-4H-chromene-2-carboxamide] the IC50 (recombinant hMAO-A) was over 100 µM, the IC50 ([2]; hAChE IC50, mean ± SEM (n = 3)) was 3.2 ± 0.4 µM and the Papp at 120 min, 100 μg mL^−1 [3] was 19.4 ± 1.7 ×10⁻⁶ cm/s. For the same compound, the IC50 (recombinant hMAO-B) was over 100 µM.

For `COc1cccc2[nH]c(C(=O)Nc3ccc(CN(C)Cc4ccccc4)cc3)cc(=O)c12` [Compound 7, N-(4-((Benzyl(methyl)amino)methyl)phenyl)-5-methoxy-4-oxo-1,4-dihydroquinoline-2-carboxamide], the IC50 (recombinant hMAO-A) was over 100 µM, the IC50 [2, 4] was 4 ± 0.4 µM and the Papp at 120 min, 100 μg mL^−1 [3] was 23 ± 2.1 ×10⁻⁶ cm/s. The “more active in hMAO-B than in hMAO-A” value (recombinant hMAO-B) was 6.6 fold and the IC50 (recombinant hMAO-B) was 15.2 ± 1 µM.

For `COc1ccc2[nH]c(C(=O)Nc3ccc(CN(C)Cc4ccccc4)cc3)cc(=O)c2c1` [Compound 8, N-(4-((Benzyl(methyl)amino)methyl)phenyl)-6-methoxy-4-oxo-1,4-dihydroquinoline-2-carboxamide], the IC50 (recombinant hMAO-A) was over 100 µM, the IC50 [2, 4] was 2.3 ± 0.1 µM and the “hLOX-5 IC50” value (hLOX-5; mean ± SEM) was “inactive”. The IC50 (hLOX-5; mean ± SEM, read-out: hLOX-5 IC50) was over 100 µM, the Papp at 120 min, 100 μg mL^−1 [3] was 24.8 ± 2 ×10⁻⁶ cm/s and the IC50 (recombinant hMAO-B) was over 100 µM.

`CN(Cc1ccccc1)Cc1ccc(NC(=O)c2cc(=O)c3cc(O)ccc3[nH]2)cc1` [Compound 9, N-(4-((Benzyl(methyl)amino)methyl)phenyl)-6-hydroxy-4-oxo-1,4-dihydroquinoline-2-carboxamide] gave an IC50 (recombinant hMAO-A) of over 100 µM, an IC50 ([2]; hAChE IC50, mean ± SEM (n = 3)) of 3.1 ± 0.3 µM and a Papp at 120 min, 100 μg mL^−1 [3] of 8.4 ± 0.7 ×10⁻⁶ cm/s. For the same compound, the IC50 (recombinant hMAO-B) was over 100 µM and the “ORAC, trolox equivalents” value [1] was 1.2 mmol of trolox/mmol of tested compound and 1.2 ± 0.1 mmol of trolox/mmol of tested compound.

In the case of `COc1ccc2c(=O)cc(C(=O)Nc3ccc(CN(C)Cc4ccccc4)cc3)[nH]c2c1` [Compound 10, N-(4-((Benzyl(methyl)amino)methyl)phenyl)-7-methoxy-4-oxo-1,4-dihydroquinoline-2-carboxamide], the IC50 (recombinant hMAO-A) is reported as over 100 µM, the IC50 ([2]; hAChE IC50, mean ± SEM (n = 3)) is reported as 2.3 ± 0.2 µM and the IC50 (hLOX-5; hLOX-5 IC50, mean ± SEM) is reported as 82.8 ± 4.1 µM. For the same compound, the Papp at 120 min, 100 μg mL^−1 [3] was 21.7 ± 1.9 ×10⁻⁶ cm/s and the IC50 (recombinant hMAO-B) was over 100 µM.

Compound `COc1cc2[nH]c(C(=O)Nc3ccc(CN(C)Cc4ccccc4)cc3)cc(=O)c2cc1OC` [Compound 11, N-(4-((benzyl(methyl)amino)methyl)phenyl)-6,7-dimethoxy-4-oxo-1,4-dihydroquinoline-2-carboxamide] has an IC50 (recombinant hMAO-A) of over 100 µM, an IC50 ([2]; hAChE IC50, mean ± SEM (n = 3)) of 4.5 ± 0.3 µM and a Papp at 120 min, 100 μg mL^−1 [3] of 19.1 ± 1.5 ×10⁻⁶ cm/s. For the same compound, the IC50 (recombinant hMAO-B) was over 100 µM.

`CN(Cc1ccccc1)Cc1ccc(NC(=O)c2cc(=O)c3cc(O)c(O)cc3[nH]2)cc1` [Compound 12, N-(4-((benzyl(methyl)amino)methyl)phenyl)-6,7-dihydroxy-4-oxo-1,4-dihydroquinoline-2-carboxamide] gave an IC50 (recombinant hMAO-A) of over 100 µM, an IC50 ([2]; hAChE IC50, mean ± SEM (n = 3)) of over 10 µM and a Papp at 120 min, 100 μg mL^−1 [3] of 8.8 ± 0.7 ×10⁻⁶ cm/s. For the same compound, the IC50 (recombinant hMAO-B) was over 100 µM and the “ORAC, trolox equivalents” value [1] was 0.5 mmol of trolox/mmol of tested compound and 0.5 ± 0.1 mmol of trolox/mmol of tested compound.

`COc1cc2[nH]c(C(=O)Nc3cccc(CN(C)Cc4ccccc4)c3)cc(=O)c2cc1OC` [Compound 13, N-(3-((Benzyl(methyl)amino)methyl)phenyl)-6,7-dimethoxy-4-oxo-1,4-dihydroquinoline-2-carboxamide] showed an IC50 (recombinant hMAO-A) of over 100 µM, an IC50 ([2]; hAChE IC50, mean ± SEM (n = 3)) of over 10 µM and an IC50 (hLOX-5; hLOX-5 IC50, mean ± SEM) of 36.6 ± 3.1 µM. For the same compound, the Papp at 120 min, 100 μg mL^−1 [3] was 15.1 ± 1.2 ×10⁻⁶ cm/s and the IC50 (recombinant hMAO-B) was over 100 µM.
